Source: US5989198A, “Use of capillary electrophoresis to determine glomerular filtration rate using iothalamate” (Mayo Foundation for Medical Education and Research, priority 1997, dated 1999)
Like-named read-outs stand apart in the source and are kept apart here.

Experiments:
[1] = cited from earlier work
[2] = urine diluted with 5 mM borate; cited from earlier work
[3] = GFR by capillary electrophoresis of non-isotopic (cold) iothalamate meglumine, timed urine and average of 2 plasma samples after subcutaneous injection; assay type: in vivo, human; conditions: for mean GFR: capillary electrophoresis
Description: Prior to the test, patients were given 3 drops of a saturated solution of potassium iodide in 20 mis of water to prevent thyroid uptake of the small amount of free ^125 I-iothalamate and to protect patients from radiation exposure to the thyroid. They were also given a single subcutaneous injection of 0.5 mls of iothalamate meglumine (Conray®) (300 mg) diluted 1:1 with distilled water. Patients who professed an allergy to iodine were not included in this study, nor were patients who had been given an angiographic dye in the previous 24 hours.
On the day of the appointment, the patient ate nothing for 4 hours preceding the test (diabetics 2 hours) and drank 4 glasses of water in the hour preceding the test. They were also instructed not to void within 45 minutes of their appointment time. Patients were given oral hydration of 200 mls/per hour throughout the test.
Prior to injection, urine (U0) and blood plasma (P0) samples were obtained to assess for drug interferences. After subcutaneous injection of the two different GFR markers, a 45-minute equilibration period allowed blood levels to peak and become stable or fall as previously described for 125I subcutaneous iothalamate clearances by N. T. Ott et al., Mayo Clin. Proc., 50, 664 (1975), for ^125 I-iothalamate. This sampling method was adapted from studies reported by Israelit et al. for ^125 I-iothalamate, in Kid. […] After the 45 minute equilibration period, 7 ml of blood (P1) and a urine sample (UE) were collected and time (T0) was recorded. […] Bladder emptying was assessed by monitoring with a Diagnostic Ultrasound bladder scanner (Model No. 2500). […]
The patient was moved to a waiting room and returned to the laboratory after 45 to 60 minutes when the urge to void became apparent. Second blood (P2) and urine (U1) samples were collected, urine volume was recorded, and bladder emptying monitored. Adequacy of the test was confirmed if the bladder was empty (<10 ml or <10% of voided volume on scanner readout), and a minimum of 100 mls of urine was voided during the test. The timed urine (U1) and bloods (P1 and P2) were analyzed by CE. […]

Row | SMILES | GFR - Range of Normal ([1]; AGE 18-22) | GFR - Range of Normal ([1]; AGE 23-27) | GFR - Range of Normal ([1]; AGE 28-32) | GFR - Range of Normal ([1]; AGE 33-37) | GFR - Range of Normal ([1]; AGE 38-42) | GFR - Range of Normal ([1]; AGE 43-47) | GFR - Range of Normal ([1]; AGE 48-52) | GFR - Range of Normal ([1]; AGE 53-57) | GFR - Range of Normal ([1]; AGE 58-62) | GFR - Range of Normal ([1]; AGE >62) | sample stability, refrigerated [2] | mean GFR ([3]; initial patient group, before vortexing of ultrafiltrate) | range of GFR's over which CE and isotope methods correlated ([3]; initial patients (one hundred), s.c. injection) | mean GFR ([3]; second group of 31 patients, ultrafiltrate vortexed)
1 | CNC(=O)c1c(I)c(NC(C)=O)c(I)c(C(=O)O)c1I [Iothalamate] | > 90 ml/min/1.73 m^2 | > 88 ml/min/1.73 m^2 | > 86 ml/min/1.73 m^2 | > 84 ml/min/1.73 m^2 | > 82 ml/min/1.73 m^2 | > 80 ml/min/1.73 m^2 | > 78 ml/min/1.73 m^2 | > 75 ml/min/1.73 m^2 | > 73 ml/min/1.73 m^2 | > 70 ml/min/1.73 m^2 | at least 2 weeks | – | – | –
2 | CNC(=O)c1c(I)c(NC(C)=O)c(I)c(C(=O)O)c1I [iothalamate meglumine, 1-deoxy-1-(methylamino)-D-glucitol-5-acetamido-2,4,6,-triiodo-N-methylisophthalamate] | – | – | – | – | – | – | – | – | – | – | – | 58 mls/min/1.73 M^2 | 9-103 mls/min/1.73 M^2 | 62 mls/min
